Results on 13 compounds are retold here after publication PMC11731290, “Highly Active Oligoethylene Glycol Pleuromutilins via Systematic Linker Synthesis/One-Pot Attachment and a Microscale Solubility Method” (The Journal of Organic Chemistry, 2024).

SMILES strings stand for the structures. Values after ≈ are worked out from the molar mass of the structure shown. Like-named read-outs stand apart in the source and are kept apart here. Where only a bound is given, the exact number is not on record here.

Data set [1] in a line: Microscale solubility by optical density (plate reader). The settings on record: 37 °C, aqueous buffer, kinetic from dmso stock.
Data set [2] has as its system methicillin-resistant S. aureus (MRSA) ATCC 43300. Nature of the data set: Broth microdilution MIC, MRSA 43300. The format is cell-based, Staphylococcus aureus. The settings on record: for MIC: Staphylococcus aureus, read-out: Minimum inhibitory concentration, MRSA 43300; for improvement in activity relative to pleuromutilin (1): Gram-positive bacteria (S. aureus strains), MIC ratio to 1. (In general: In broth dilution the organism is exposed to a series of concentrations in liquid medium.)

Data set [3] has as its system E. coli ΔTolC. Nature of the data set: Broth microdilution MIC, E. coli ΔTolC. In kind it is cell-based. The settings on record: Escherichia coli, read-out: Minimum inhibitory concentration, E. coli ΔTolC.
The test system of data set [4] is E. coli MC1061. Nature of the data set: Broth microdilution MIC, E. coli MC1061. The format is cell-based. The settings on record: Escherichia coli.
Data set [5] has as its system S. aureus 6538P. Nature of the data set: Broth microdilution MIC, S. aureus 6538P. In kind it is cell-based. The conditions noted are these: Staphylococcus aureus, read-out: Minimum inhibitory concentration, S. aureus 6538P.
The subject of data set [6] is vancomycin-resistant Enterococcus (VRE). The data set is described as follows: Broth microdilution MIC, VRE. In kind it is cell-based. The conditions noted are these: for MIC: Enterococcus, VRE, 24 h, read-out: Minimum inhibitory concentration, VRE.
Details of data set [7]: method as in earlier work. The conditions noted are these: cited from earlier work.
The mark [8] stands for this setting: broth microdilution, 37 °C, 16–18 h, MIC = lowest concentration inhibiting >90% of growth.
The mark [9] stands for this setting: MC1061, broth microdilution, 37 °C, 16–18 h, MIC = lowest concentration inhibiting >90% of growth, read-out: Minimum inhibitory concentration, E. coli MC1061.
[10] abbreviates: broth microdilution, 37 °C, MIC = lowest concentration inhibiting >90% of growth.

Broadly, the solubility is the dissolved amount per volume that the medium holds.

Consider `C=C[C@]1(C)C[C@@H](OC(=O)CSCCOCCO)[C@]2(C)[C@H](C)CC[C@]3(CCC(=O)[C@H]32)[C@@H](C)[C@@H]1O` [compound 43], for which the solubility at 1 day in data set [1] is more than 200 µM. The MIC was 0.781 µM (≈ 0.377 µg/mL) in data set [2] (setting [8]); 0.391 µM (≈ 0.189 µg/mL) in data set [3]; 6.25 µM (≈ 3.02 µg/mL) in data set [4] (setting [9]); 0.781 µM (≈ 0.377 µg/mL) in data set [5] (setting [8]); 3.12 µM (≈ 1.51 µg/mL) in data set [6] (setting [10]).

In data set [1], `C=C[C@]1(C)C[C@@H](OC(=O)CSCCOCCOCCOCCOCCO)[C@]2(C)[C@H](C)CC[C@]3(CCC(=O)[C@H]32)[C@@H](C)[C@@H]1O` [compound 46] registered a solubility at 1 day of more than 200 µM. In addition, the MIC in data set [2] (setting [8]) stood at 1.56 µM (≈ 0.959 µg/mL); in data set [3] it was 0.781 µM (≈ 0.48 µg/mL); in data set [4] (setting [9]), 12.5 µM (≈ 7.69 µg/mL); in data set [5], 0.781 µM (≈ 0.48 µg/mL); in data set [6] (setting [10]) it was 3.12 µM (≈ 1.92 µg/mL).

Take `C=C[C@]1(C)C[C@@H](OC(=O)CSCCO)[C@]2(C)[C@H](C)CC[C@]3(CCC(=O)[C@H]32)[C@@H](C)[C@@H]1O` [compound 25]: in data set [1], the solubility at 1 day is more than 200 µM. Besides, the MIC in data set [2] (setting [8]) stood at 0.781 µM (≈ 0.343 µg/mL); in data set [3] it was 0.391 µM (≈ 0.172 µg/mL); in data set [4] (setting [9]) it was 3.12 µM (≈ 1.37 µg/mL); in data set [5] (setting [8]), 0.781 µM (≈ 0.343 µg/mL); in data set [6] (setting [10]), 3.12 µM (≈ 1.37 µg/mL).

Turning to `C=C[C@]1(C)C[C@@H](OC(=O)CSCCOCCOCCN=[N+]=[N-])[C@]2(C)[C@H](C)CC[C@]3(CCC(=O)[C@H]32)[C@@H](C)[C@@H]1O` [compound 30], in data set [1], the solubility at 1 day was 50 to 100 µM (≈ 27.6 to 55.2 µg/mL). Besides, the MIC amounted to 0.781 µM (≈ 0.431 µg/mL) in data set [2] (setting [8]); 0.391 µM (≈ 0.216 µg/mL) in data set [3]; 25 µM (≈ 13.8 µg/mL) in data set [4] (setting [9]); 0.781 µM (≈ 0.431 µg/mL) in data set [5] (setting [8]); 3.12 µM (≈ 1.72 µg/mL) in data set [6] (setting [10]).

On to `C=C[C@]1(C)C[C@@H](OC(=O)CSCCOCCOCCOCCOCCOCCOCCOCCO)[C@]2(C)[C@H](C)CC[C@]3(CCC(=O)[C@H]32)[C@@H](C)[C@@H]1O` [compound 48], for which the solubility at 1 day in data set [1] is more than 200 µM. The MIC in data set [2] (setting [8]) is 3.12 µM (≈ 2.33 µg/mL); in data set [3], 1.56 µM (≈ 1.17 µg/mL); in data set [4] (setting [9]), 25 µM (≈ 18.7 µg/mL); in data set [5], 1.56 µM (≈ 1.17 µg/mL); in data set [6] (setting [10]), 3.12 µM (≈ 2.33 µg/mL).

In data set [1], `C=C[C@]1(C)C[C@@H](OC(=O)CSCCOCCOCCOCCN=[N+]=[N-])[C@]2(C)[C@H](C)CC[C@]3(CCC(=O)[C@H]32)[C@@H](C)[C@@H]1O` [compound 31] registered a solubility at 1 day of 100 to 200 µM (≈ 59.6 to 119 µg/mL). Moreover, the MIC in data set [2] (setting [8]) came to 0.781 µM (≈ 0.465 µg/mL); in data set [3] it was 0.391 µM (≈ 0.233 µg/mL); in data set [4] (setting [9]), 50 µM (≈ 29.8 µg/mL); in data set [5] (setting [8]) it was 0.781 µM (≈ 0.465 µg/mL); in data set [6] (setting [10]), 3.12 µM (≈ 1.86 µg/mL).

In the case of `C=C[C@]1(C)C[C@@H](OC(=O)CSCCOCCOCCOCCOCCOCCO)[C@]2(C)[C@H](C)CC[C@]3(CCC(=O)[C@H]32)[C@@H](C)[C@@H]1O` [compound 47], the solubility at 1 day in data set [1] was more than 200 µM. In addition, the MIC was 1.56 µM (≈ 1.03 µg/mL) in data set [2] (setting [8]); 0.781 µM (≈ 0.515 µg/mL) in data set [3]; 25 µM (≈ 16.5 µg/mL) in data set [4] (setting [9]); 0.781 µM (≈ 0.515 µg/mL) in data set [5]; 3.12 µM (≈ 2.06 µg/mL) in data set [6] (setting [10]).

Consider `C=C[C@]1(C)C[C@@H](OC(=O)CSCCOCCOCCOCCO)[C@]2(C)[C@H](C)CC[C@]3(CCC(=O)[C@H]32)[C@@H](C)[C@@H]1O` [compound 45], for which, in data set [1], the solubility at 1 day is more than 200 µM. Moreover, the MIC came out at 1.56 µM (≈ 0.89 µg/mL) in data set [2] (setting [8]); 0.781 µM (≈ 0.446 µg/mL) in data set [3]; 12.5 µM (≈ 7.13 µg/mL) in data set [4] (setting [9]); 0.781 µM (≈ 0.446 µg/mL) in data set [5]; 3.12 µM (≈ 1.78 µg/mL) in data set [6] (setting [10]).

Regarding `C=C[C@]1(C)C[C@@H](OC(=O)CSCCOCCN=[N+]=[N-])[C@]2(C)[C@H](C)CC[C@]3(CCC(=O)[C@H]32)[C@@H](C)[C@@H]1O` [compound 29], the solubility at 1 day in data set [1] lay in the range of 25 to 50 µM (≈ 12.7 to 25.4 µg/mL). In addition, the “improvement in activity relative to pleuromutilin (1)” value in data set [2] came out at 8 fold. In addition, the MIC in data set [2] stood at 0.391 µM (≈ 0.199 µg/mL); in data set [3], 0.391 µM (≈ 0.199 µg/mL); in data set [4] (setting [9]), 25 µM (≈ 12.7 µg/mL); in data set [5] (setting [8]), 0.781 µM (≈ 0.397 µg/mL); in data set [6] (setting [10]), 3.12 µM (≈ 1.58 µg/mL).

The compound `C=C[C@]1(C)C[C@@H](OC(=O)CSCCOCCOCCO)[C@]2(C)[C@H](C)CC[C@]3(CCC(=O)[C@H]32)[C@@H](C)[C@@H]1O` [compound 44] returned a solubility at 1 day in data set [1] of more than 200 µM. Besides, the MIC came to 1.56 µM (≈ 0.822 µg/mL) in data set [2] (setting [8]); 0.391 µM (≈ 0.206 µg/mL) in data set [3]; 12.5 µM (≈ 6.58 µg/mL) in data set [4] (setting [9]); 0.781 µM (≈ 0.411 µg/mL) in data set [5] (setting [8]); 3.12 µM (≈ 1.64 µg/mL) in data set [6] (setting [10]).

In data set [1], `C=C[C@]1(C)C[C@@H](OC(=O)CSCCN=[N+]=[N-])[C@]2(C)[C@H](C)CC[C@]3(CCC(=O)[C@H]32)[C@@H](C)[C@@H]1O` [compound 28] registered a solubility at 1 day of 25 to 50 µM (≈ 11.6 to 23.2 µg/mL). Besides, the “improvement in activity relative to pleuromutilin (1)” value in data set [2] stood at 8 fold. The MIC in data set [2] (setting [8]) stood at 0.391 µM (≈ 0.181 µg/mL); in data set [3], 0.195 µM (≈ 0.0904 µg/mL); in data set [4] (setting [9]), 12.5 µM (≈ 5.8 µg/mL); in data set [5] (setting [8]) it was 0.391 µM (≈ 0.181 µg/mL); in data set [6] (setting [10]), 1.56 µM (≈ 0.723 µg/mL). Further, in data set [6] (MIC ratio to 1), the “potency compared to 1, VRE” value was determined as 8 fold.

`C=C[C@]1(C)C[C@@H](OC(=O)CSCCOCCOCCOCCOCCN=[N+]=[N-])[C@]2(C)[C@H](C)CC[C@]3(CCC(=O)[C@H]32)[C@@H](C)[C@@H]1O` [compound 32] registered a solubility at 1 day in data set [1] of 100 to 200 µM (≈ 64 to 128 µg/mL). Also, the MIC in data set [2] (setting [8]) amounted to 0.781 µM (≈ 0.5 µg/mL); in data set [3] it was 0.391 µM (≈ 0.25 µg/mL); in data set [4] (setting [9]), 25 µM (≈ 16 µg/mL); in data set [5] (setting [8]), 0.781 µM (≈ 0.5 µg/mL); in data set [6] (setting [10]) it was 3.12 µM (≈ 2 µg/mL).

In data set [1], `C=C[C@]1(C)C[C@@H](OC(=O)CO)[C@]2(C)[C@H](C)CC[C@]3(CCC(=O)[C@H]32)[C@@H](C)[C@@H]1O` [compound 1, Pleuromutilin] returned a solubility at 1 day of 50 to 100 µM (≈ 18.9 to 37.9 µg/mL). In addition, the MIC in data set [2] is 3.12 µM (≈ 1.18 µg/mL); in data set [3], 3.12 µM (≈ 1.18 µg/mL); in data set [4] (MC1061, read-out: Minimum inhibitory concentration, E. coli MC1061), 3.12 µM (≈ 1.18 µg/mL); in data set [5], 3.12 µM (≈ 1.18 µg/mL); in data set [6], 12.5 µM (≈ 4.73 µg/mL). In addition, the water solubility in data set [7] is 0.02 mg/mL (≈ 52.8 µM).
